From PMC10590383, “Repurposing conformational changes in ANL superfamily enzymes to rapidly generate biosensors for organic and amino acids” (Nature Communications, 2023)

Experiment: Dose–response curve of purified […]s with histidine
Assay type: biochemical
Set-up: key to Dose-response, AVE of Repeat 1-3 (Fig. 3 k): normalized ΔF/F0 (fluorescence change over baseline)
Protocol: Fig. 3 Dose–response curves and fluorescence spectrums of […]s. a, c, e, g, i, k Dose–response curve of purified […]s with increasing concentrations of ligand in 100 mM Tris-HCl buffer (pH=7.5). The normalized ΔF/F0 value increased after ligand binding. All data shown are mean ± S.D. (n = 3 biologically independent samples). b, d, f, h, j, l The fluorescence spectra of […]s changed as the ligand concentration increased. All data shown are mean ± S.D. (n = 3 biologically independent samples). Source data are provided as a Source data file.
The study conducted dose–response curve, substrate specificity, and fluorescent spectrum analyses in 100-mM Tris buffer (pH = 7.5), while pH stability experiments were performed in 100-mM Tris buffer at three different pH values (6.5, 7.5, and 8.5) at room temperature. […] protein at a concentration of 0.75 μM, various small molecule concentrations, 1 mM ATP, and 2.5 mM MgCl2 were used in the experiments. Fluorescent signals were detected using a Microplate Reader (Synergy H4, Bio Tek) at an excitation/emission wavelength of 460 nm/510 nm or 480 nm/510 nm. The dose-response curve was determined immediately after the addition of the analyte. The total duration of the measurement was 15 min, with readings taken at one-minute intervals. The dose-response curve was plotted using the fluorescence values obtained after achieving stability in the fluorescence signal. The dose-response curves were fitted using the logistic model LOGISTIC5 available in Origin 2021, which could provide a more adequate fit to asymmetric dose-response data[62],[63]. Excitation spectra were scanned from 300 to 540 nm with a step size of 5 nm, and the emission wavelength was set to 560 nm. Emission spectra were scanned from 470 to 700 nm with a step size of 5 nm, and the excitation wavelength was set to 450 nm. The thermal stability of […] was analyzed using the UNcle multifunctional protein stability analysis system. Measurements were performed in 20 mM MOPS buffer with 2 mM DTT at a sample concentration of 1 mg/mL. Absolute fluorescence quantum yields were measured using an absolute photoluminescence quantum yield spectrometer (FS5, Edinburgh). […]
Supplementary Fig. 2 Dose–response curves and fl uorescen ce spectr ums of GEC FINDERs. a and c, Dose– re spons e curves of puri fi ed GECF INDE R-P he1 and 2 with increas ing concen tra tions of phenylalanine (1 nM to 100 μM). The norm alized ΔF/F 0 value increas ed aft er phenylalanine binding (4 60 nm excita tion) . b and d, The fl uore scen ce spect ra of GECF IN DER-P he1 and 2 changed as the phe nylalanine concen tra tion incre ased fro m 1 nM to 100 μM. e and g, Dose–re spon se curv es of puri fied GECF IN DER-Il e1 and 2 with increas ing concen tra tio ns of isoleucine (50 nM to 10 mM). The norm alized ΔF/F 0 value increas ed aft er isoleucine binding (4 80 nm excita tion) . f and h, The fl uore scen ce spect ra of GECF INDE R-Il e1 and 2 change d as the isoleucine concen tration increas ed fro m 0.5 μM to 10 mM. i, Dose–re spon se curv e of puri fi ed GECF INDE R-H is1 with increas ing concen tra tio ns of histid ine (5 nM to 1 mM). The Norm alized ΔF/F 0 increas ed aft er histidine binding (480 nm excita tion). j, The fl uore scen ce spect ra of GECFIN DER-H is1 changed as the histid ine concen tra tion increas ed fro m 5 nM to 1 mM. k, Diffe re nce in fl uore scen ce intensity of GECF INDE R-b enzoic aci d in the pre sence of 10 µM benzoic aci d compare d to the cont ro l (0 µM benzoic aci d). […] (n=3 biological ly independent samples). *p ≤ 0.05, ***p ≤ 0.001, ****p ≤ 0.0001, and n.s. indicat ed no signifi can t diffe re nce (S tude nt’s two-t aile d t-t est). Source data are provi ded as a Source Data file . […]

N[C@@H](Cc1cnc[nH]1)C(=O)O [His]
Dose-response, AVE of Repeat 1-3 (Fig. 3 k) (His 0.005 μM): -4.366e-17 | Dose-response, AVE of Repeat 1-3 (Fig. 3 k) (His 0.01 μM): 0.01906 | Dose-response, AVE of Repeat 1-3 (Fig. 3 k) (His 0.05 μM): 0.01899 | Dose-response, AVE of Repeat 1-3 (Fig. 3 k) (His 0.5 μM): 0.05174 | Dose-response, AVE of Repeat 1-3 (Fig. 3 k) (His 5 μM): 0.1739 | Dose-response, AVE of Repeat 1-3 (Fig. 3 k) (His 10 μM): 0.234 | Dose-response, AVE of Repeat 1-3 (Fig. 3 k) (His 25 μM): 0.2903 | Dose-response, AVE of Repeat 1-3 (Fig. 3 k) (His 50 μM): 0.3383 | Dose-response, AVE of Repeat 1-3 (Fig. 3 k) (His 100 μM): 0.377 | Dose-response, AVE of Repeat 1-3 (Fig. 3 k) (His 500 μM): 0.4545 | Dose-response, AVE of Repeat 1-3 (Fig. 3 k) (His 750 μM): 0.4382 | Dose-response, AVE of Repeat 1-3 (Fig. 3 k) (His 1000 μM): 0.4348 | fluorescence intensity, AVE of 3 repeats (Supplementary Fig. 3 h, His 0.75 mM): 10877
